Values of other authors as cited in patent US20070196481A1, “Sustained-release tablet composition” (priority 2002, published 2007).
Structures can show the parent of a compound that is named as a salt.

In the case of `CCCNC1CCc2nc(N)sc2C1` (centres unmarked) [pramipexole dihydrochloride], the solubility in water is given as “about 200 mg/ml”.

In the case of `CCOc1ccccc1OC(c1ccccc1)C1CNCCO1` (centres unmarked) [reboxetine mesylate], the solubility in water is given as “about 250 mg/ml”.
